According to US20220110985A1, “NUTRITIONAL COMPOSITION COMPRISING 2'FUCOSYLLACTOSE AND 3'GALACTOSYLLACTOSE” (N.V. Nutricia, priority 2019, published 2022):

Assays:
Bifidobacteria = experiment: Fecal slurry fermentation: total Bifidobacteria; assay type: cell-based
Description: (§1) Anaerobic fermentation of fecal slurry samples was tested in a BioLector Pro microfluidics mini multifermentor. Faecal slurry samples were collected from breast fed infants and from formula fed infants. These faecal slurry samples were processed by adding 0.6 grams feces in 40 ml Baby Reichardt V.6 medium+mucus+Ammonium sulfate+lactate and acetate. The resulting solutions were inserted to the BioLector Pro microfluidics mini multifermentor. The test legs were supplemented with 3-GL, 2′-FL, 3′-GL+2′-FL, and GOS/FOS. The control leg was supplemented with sterile water.
A 32 well plate that can handle low pH was used. The wells of this plate were filled with fecal solution. 2.5% (w/v) of the different sterile carbohydrate solutions (3′-GL, 2′-FL, 2′-FL/3′-GL (2.0+0.5%). and Glucose were added to the fecal slurry according to a template.
The experiment was started, and pH setpoint was either 5.5 (facial inoculum from infant 1, vaginally born, breast fed) or pH 6.0 (Inoculum from infant 2, vaginally born, breast fed) with continuous pH regulation, and temperature 37° C., humidity 85%, OD control. At 4, 8 and 24 hours a sample is taken for CFU determination on TOS-propionate MUP agar (total Bifidobacteria), XLD agar for Salmonella enteriditis S29, and Simons citrate inositol agar for Klebsiella pneumonia K2 and for SCFA, D- and L Lactate and ammonia analysis. Fecal pellet was used for 16s DNA sequencing.

[1] = tested on: human PBMC, CD3/CD28 stimulated; experiment: Cytokine production of CD3/CD28 stimulated PBMC; assay type: cell-based; conditions: for CCL17 levels, in words / levels of IL-4 and IL-13 as compared to control, in words: CD3/CD28 stimulated PBMC, pre-incubation; for Relative level of CCL17, Mean (s.e.) / Relative level of IL-4, Mean (s.e.) / Relative level of IL-13, Mean (s.e.): CD3/CD28 stimulated, 24 h pre-incubation, 0.2 wt % 2′-FL, 0.1 wt % 3′-GL, blanc = 1, observed
Description: Isolation of PBMC from healthy donors: Human peripheral blood mononuclear cells (PBMC) from healthy donors were isolated from buffy coats (Sanquin, Amsterdam, the Netherlands). PBMC were obtained by centrifugation using Leucosep tubes (Greiner Bio-One). PBMC were collected and washed in PBS (Gibco, Thermo Fisher Technologies)+2% heat-inactivated FCS (Invitrogen), followed by hypotonic lysis of erythrocytes with sterile lysis buffer (0.15 M NH4Cl, 0.01 M KHCO3 and 0.1 mM EDTA, pH of 7.4 at 4° C., all from Merck, Darmstadt, Germany). After lysis, the PBMC were resuspended in freezing medium (70% RPMI 1640 medium (Gibco, Thermo Fisher Technologies) supplemented with 10% heat-inactivated FCS and 100 U/ml penicillin-streptomycin, 20% heat-inactivated FCS and 10% DMSO (Sigma)) and cryopreserved.
PBMC activation model: PBMC (0.2·10^6 cell/well) were cultured in 96-well flat bottom plates (Corning). For 24 hours the cells were pre-incubated with 2′-FL (Jennewein), 3′-GL (0-0.3% w/v; Carbosynth) or sodium butyrate (0.2 mM; Sigma Aldrich) and combinations thereof. Subsequently, the cells were CD3/CD28-activated (Pelicluster CD3 and Pelicluster CD28, Sanquin) for an additional 24 hours. After incubation, IFNγ was measured by ELISA in the supernatants (see below). To determine cell activity after stimulation, PBMC were incubated with cell proliferation reagent WST-1 (10 μl; Roche) and/or 10% Triton (5 μl; negative control). After 3 hours, absorbance was measured at OD450 nm and OD650 nm and cell activity was calculated according to manufacturer's instructions.
Cytokine production of PBMC: PBMC were incubated with indicated reagents. After incubation, the supernatants were collected and IL2, IL6, IL10, IL13, IL21, TNFα, IFNγ, MIF, CCL1, CCL13, CCL17, CCL20, CCL22 and CXCL8-11 levels were measured by conducting a validated multiplex immunoassay based on Luminex technology (xMAP, Luminex Austin Tex. USA). Acquisition was conducted with the Biorad FlexMAP3D (Biorad laboratories, Hercules USA) in combination with xPONENT software version 4.2 (Luminex). Data was analyzed by 5-parametric curve fitting using Bio-Plex Manager software, version 6.1.1 (Biorad).
After PBMC stimulation, cell culture supernatants were collected, after which cytokine responses were measured in order to test immune responsiveness of the cells. The levels of cytokines measured in stimulated conditions were corrected for the (low) levels of the cytokines measured in non-stimulated conditions. In addition, since each donor is reacting in its own efficiency onto the T cell stimulus, we calculated the individual index of cytokine response by dividing the intervention induced response by the basal stimulated response.
Subsequently, in order to test the direct effect of specific compounds on PBMC activity, the cells were activated with CD3/CD28 for 24 hours after a pre-incubated for 24 h with either 2′-FL, 3′-GL and combinations thereof. In addition, since each donor is reacting in its own efficiency onto the T cell stimulus, the individual index of cytokine response was calculated by dividing the intervention induced response by the basal stimulated response (the blanc is set at 1). In this way the intervention within 10 different donors has been studied.

fecal slurry microbiota = experiment: Anaerobic fermentation of fecal slurry (BioLector Pro): acidification, microbiota composition; assay type: cell-based, human infant; conditions: no pathogen spiking
Description: as §1
In addition the test legs were supplemented with Clostridium difficile C153 (difficile agar), Salmonella enteriditis S29 (XLD agar), Cronobacter sakasakii E71 (chromogenic agar) or Klebsiella pneumonia K2 (Simons citrate inositol agar). For every NDO and for the control also a pathogen free culture was prepared.
After fermentation the fermented solutions were tested for SCFA content (in particular acetic acid, propionic acid, butyric acid and isobutyric acid), ammonia content, lactate content and pathogen concentration. Also DNA-isolation+identification and 16s sequencing was performed to determine the composition of the microbiota.
A 32 well plate that can handle low pH was used. The wells of this plate were filled with fecal solution. […]

Row | Compound | Growth of bifidobacteria (Bifidobacteria) | CCL17 levels, in words [1] | levels of IL-4 and IL-13 as compared to control, in words [1] | Relative level of CCL17, Mean (s.e.) [1] | Relative level of IL-4, Mean (s.e.) [1] | Relative level of IL-13, Mean (s.e.) [1] | extent of fermentation as measured by NaOH consumption, i.e. acid production (fecal slurry microbiota; both inocula) | effect on bifidobacteria (Bifidobacteria; inoculum of baby 2) | rate of initial acidification (fecal slurry microbiota)
1 | C[C@@H]1O[C@@H](O[C@H]2[C@H](O[C@H]3[C@H](O)[C@@H](O)C(O)O[C@@H]3CO)O[C@H](CO)[C@H](O)[C@@H]2O)[C@@H](O)[C@H](O)[C@@H]1O (stereo partly drawn) [2′-FL, α-L-Fuc-(1→2)-β-D-Gal-(1→4)-D-Glc] | Growth of bifidobacteria was observed | no significant effect | had no effect | 1.061 (0.117) | 0.9887 (0.0517) | 1.039 (0.080) | slower and lower acidification |  | 
2 | Gal (beta 1-3)-Gal (beta 1-4)-Glc [3′-GL] | Growth of bifidobacteria was observed | no significant effect | a decrease was detected | 0.6212 (0.0531) | 0.5825 (0.0413) | 0.5472 (0.0723) |  | highest | high
